Assay results published in US12435108B2, “Teixobactin analogue and use thereof” (SUNSHINE LAKE PHARMA CO., LTD., priority 2019, dated 2025).
Like-named read-outs stand apart in the source and are kept apart here.

Experiments:
[1] = test system: MRSA (ATCC43300)
Method: (§1) For the determination of the minimum inhibitory concentration (MIC), according to the CLSI standard, the minimum inhibitory concentration of 3 ATCC standard strains (2 strains of Staphylococcus aureus and 1 strain of Enterococcus faecium) was tested by two independent repeated experiments. Compounds were diluted two-fold in a 96-well plate from the highest detection concentration of 64 μg/mL. The test plate was placed in a common incubator and incubated at 35±2° C. for 20-24 hours. The growth of bacteria in the wells was observed and recorded. Inoculation method: 5-10 bacterial single colonies from the solid medium plate resuspended in 500 μL of 1.02×CAMHB, and then OD600 was adjusted to 0.1-0.15 with a spectrophotometer; then the bacteria were diluted 300-fold with 1.02×CAMHB to ˜2×10^5 CFU/ml (stepwise dilution, first 10-fold and then 30-fold), and the prepared bacterial inoculum was inoculated in 96-well plate within 15 minutes, the number of inoculated bacteria could be obtained by plate count. Colony count: the inoculated bacteria was diluted with liquid medium from 10^−1 to 10^−3 (such as 100 μL of bacterial inoculum+900 μL of 1.02×CAMHB); 100 μl of the above bacterial dilution was evenly spread on a TSA or TSA II plate, with 2 replicates per dilution. After the medium was absorbed by TSA or TSA II for 10 minutes, the plate was inverted and cultured at 35±2° C. for 24 hours in an incubator. Record of minimum inhibitory concentration and statistics of colony count: the minimum inhibitory concentration of each compound was recorded referring to the CLSI standard; the number of colonies of bacterial inoculum of different dilutions on the TSA or TSA II plate was counted and the amount of bacterial inoculation was calculated. Selection of strain types: MRSA (ATCC43300), MSSA (ATCC29213) and VRE (ATCC700221).

[2] = test system: MSSA (ATCC29213)
Method: as §1

[3] = test system: VRE (ATCC700221)
Method: as §1

[4] = test system: MRSA (SA86); settings: agar plate two-fold dilution, CLSI, 35 °C, 18 h
Method: (§2) For the determination of the minimum inhibitory concentration (MIC), according to the CLSI standard, a two-fold dilution method with a plate and a Denlay multi-point inoculator were used to conduct the drug sensitivity test. The test bacteria were enriched with MH broth or brain heart infusion. The drug solution was diluted two-fold with MH broth to prepare various required concentrations, and appropriate amounts were added to the plates respectively. After the MH agar medium was melted, it was quantitatively poured into the plates containing the drug solution and mixed uniformly. The final concentrations of the samples were: 128, 64, 32, 16, 8, 4, 2, 1, 0.5, 0.25, 0.125, 0.063, 0.031, 0.016, 0.008, 0.004 μg/mL, respectively. The test bacteria were inoculated (inoculation amount was 10^4 cfu/point) and then incubated at constant temperature of 35 □. The results were observed after 18 h. The minimum concentration of the drug contained in the sterile growth plate was the minimum inhibitory concentration (MIC). Selection of strain types: MRSA (SA86 and SA88), MSSA (ATCC29213), Enterococcus (ET6) and Streptococcus faecalis (SF).

[5] = test system: MSSA (ATCC29213); settings: Test Method 1: agar plate two-fold dilution, CLSI, 35 °C, 18 h
Method: as §2

[6] = test system: Enterococcus (ET6); settings: agar plate two-fold dilution, CLSI, 35 °C, 18 h
Method: as §2

[7] = test system: Streptococcus faecalis (SF); settings: agar plate two-fold dilution, CLSI, 35 °C, 18 h
Method: as §2

[8] = 96-well plate, CAMHB, 35±2 °C, 20-24 hours, highest concentration 64 μg/mL
[9] = Test Method 2: 96-well plate, CAMHB, 35±2 °C, 20-24 hours, highest concentration 64 μg/mL

Row | Structure (SMILES) | In vitro antibacterial activity MIC, MRSA(ATCC43300) ([1]; ATCC43300) [µg/mL] | In vitro antibacterial activity MIC, MSSA(ATCC29213) ([2]; ATCC29213) [µg/mL] | In vitro antibacterial activity MIC, VRE(ATCC700221) ([3]; ATCC700221) [µg/mL] | other results
1 | C=C[C@H]1C[C@]12NC(=O)[C@H](C)NC(=O)[C@H](NC(=O)[C@H](CO)NC(=O)[C@@H](NC(=O)[C@H](NC(=O)[C@@H](CCC(N)=O)NC(=O)[C@H](CO)NC(=O)[C@@H](NC(=O)[C@@H](Cc1csc3ccccc13)NC)[C@@H](C)CC)[C@@H](C)CC)[C@@H](C)CC)[C@H](C)OC(=O)[C@H]([C@@H](C)CC)NC2=O.O=C(O)C(F)(F)F [Example 16] | 4 | 4 | 4 | –
2 | CC[C@H](C)[C@H](NC(=O)[C@@H](Cc1csc2ccccc12)NC)C(=O)N[C@@H](CO)C(=O)N[C@H](CCC(N)=O)C(=O)N[C@@H](C(=O)N[C@H](C(=O)N[C@@H](CO)C(=O)N[C@H]1C(=O)N[C@@H](C)C(=O)NC2(CCCCCC2)C(=O)N[C@@H]([C@@H](C)CC)C(=O)O[C@H]1C)[C@@H](C)CC)[C@@H](C)CC.O=C(O)C(F)(F)F [Example 17] | 4 | 4 | 8 | –
3 | CC[C@H](C)[C@H](NC(=O)[C@@H](Cc1ccc(-c2ccc(Oc3ccccc3)cc2)cc1)NC)C(=O)N[C@@H](CO)C(=O)N[C@H](CCC(N)=O)C(=O)N[C@@H](C(=O)N[C@H](C(=O)N[C@@H](CO)C(=O)N[C@H]1C(=O)N[C@@H](C)C(=O)NC2(CC2)C(=O)N[C@@H]([C@@H](C)CC)C(=O)O[C@H]1C)[C@@H](C)CC)[C@@H](C)CC.O=C(O)C(F)(F)F [Example 25] | 4 | 4 | 4 | –
4 | CC[C@H](C)[C@H](NC(=O)[C@@H](Cc1ccccc1)NC)C(=O)N[C@@H](CO)C(=O)N[C@H](CCC(N)=O)C(=O)N[C@@H](C(=O)N[C@H](C(=O)N[C@@H](CO)C(=O)N[C@H]1C(=O)N[C@@H](C)C(=O)NC(C)(C)C(=O)N[C@@H]([C@@H](C)CC)C(=O)O[C@H]1C)[C@@H](C)CC)[C@@H](C)CC.O=C(O)C(F)(F)F [Example 26] | – | – | – | In vitro antibacterial activity MIC, MRSA(ATCC43300) [1, 8]: 32 µg/mL; In vitro antibacterial activity MIC, MSSA(ATCC29213) [2, 9]: 64 µg/mL; In vitro antibacterial activity MIC, VRE(ATCC700221) [3, 8]: >64 µg/mL
5 | CC[C@H](C)[C@H](NC(=O)[C@@H](Cc1ccccc1)NC)C(=O)N[C@@H](CO)C(=O)N[C@H](CCC(N)=O)C(=O)N[C@@H](C(=O)N[C@H](C(=O)N[C@@H](CO)C(=O)N[C@H]1C(=O)N[C@@H](C)C(=O)N[C@@]2(C[C@H]2CCO)C(=O)N[C@@H]([C@@H](C)CC)C(=O)O[C@H]1C)[C@@H](C)CC)[C@@H](C)CC.O=C(O)C(F)(F)F [Example 12] | – | – | – | In vitro antibacterial activity MIC, MRSA(ATCC43300) [1, 8]: 8 µg/mL; In vitro antibacterial activity MIC, MSSA(ATCC29213) [2, 9]: 8 µg/mL
6 | CC[C@H](C)[C@H](NC(=O)[C@@H](Cc1ccccc1)NC)C(=O)N[C@@H](CO)C(=O)N[C@H](CCC(N)=O)C(=O)N[C@@H](C(=O)N[C@H](C(=O)N[C@@H](CO)C(=O)N[C@H]1C(=O)N[C@@H](C)C(=O)NC2(CCC2)C(=O)N[C@@H]([C@@H](C)CC)C(=O)O[C@H]1C)[C@@H](C)CC)[C@@H](C)CC.O=C(O)C(F)(F)F [Example 6] | – | – | – | In vitro antibacterial activity MIC, MRSA SA86 [4]: 8 µg/mL; In vitro antibacterial activity MIC, MSSA(ATCC29213) [5]: 8 µg/mL
7 | CC[C@H](C)[C@H](NC(=O)[C@@H](Cc1ccccc1)NC)C(=O)N[C@@H](CO)C(=O)N[C@H](CCC(N)=O)C(=O)N[C@@H](C(=O)N[C@H](C(=O)N[C@@H](CO)C(=O)N[C@H]1C(=O)N[C@@H](C)C(=O)NC2(CCCCCC2)C(=O)N[C@@H]([C@@H](C)CC)C(=O)O[C@H]1C)[C@@H](C)CC)[C@@H](C)CC.O=C(O)C(F)(F)F [Example 9] | – | – | – | In vitro antibacterial activity MIC, MRSA SA86 [4]: 4 µg/mL; In vitro antibacterial activity MIC, MSSA(ATCC29213) [5]: 4 µg/mL; In vitro antibacterial activity MIC, Enterococcus (ET6) [6]: 4 µg/mL; In vitro antibacterial activity MIC, Streptococcus faecalis(SF) [7]: 8 µg/mL
8 | CC[C@H](C)[C@H](NC(=O)[C@@H](Cc1ccccc1)NC)C(=O)N[C@@H](CO)C(=O)N[C@H](CCC(N)=O)C(=O)N[C@@H](C(=O)N[C@H](C(=O)N[C@@H](CO)C(=O)N[C@H]1C(=O)N[C@@H](C)C(=O)NC2(CC2)C(=O)N[C@@H]([C@@H](C)CC)C(=O)O[C@H]1C)[C@@H](C)CC)[C@@H](C)CC.O=C(O)C(F)(F)F [Example 5] | – | – | – | In vitro antibacterial activity MIC, MRSA SA86 [4]: 4 µg/mL; In vitro antibacterial activity MIC, MSSA(ATCC29213) [5]: 4 µg/mL; In vitro antibacterial activity MIC, Enterococcus (ET6) [6]: 8 µg/mL; In vitro antibacterial activity MIC, Streptococcus faecalis(SF) [7]: 8 µg/mL
9 | C=C[C@H]1C[C@]12NC(=O)[C@H](C)NC(=O)[C@H](NC(=O)[C@H](CO)NC(=O)[C@@H](NC(=O)[C@H](NC(=O)[C@@H](CCC(N)=O)NC(=O)[C@H](CO)NC(=O)[C@@H](NC(=O)[C@@H](Cc1ccc(-c3ccccc3)cc1)NC)[C@@H](C)CC)[C@@H](C)CC)[C@@H](C)CC)[C@H](C)OC(=O)[C@H]([C@@H](C)CC)NC2=O.O=C(O)C(F)(F)F [Example 20] | 4 | 4 | 4 | –
10 | CC[C@H](C)[C@H](NC(=O)[C@@H](Cc1ccc2ccccc2c1)NC)C(=O)N[C@@H](CO)C(=O)N[C@H](CCC(N)=O)C(=O)N[C@@H](C(=O)N[C@H](C(=O)N[C@@H](CO)C(=O)N[C@H]1C(=O)N[C@@H](C)C(=O)NC2(CC2)C(=O)N[C@@H]([C@@H](C)CC)C(=O)O[C@H]1C)[C@@H](C)CC)[C@@H](C)CC.O=C(O)C(F)(F)F [Example 23] | 2 | 4 | 4 | –
11 | CC[C@H](C)[C@H](NC(=O)[C@@H](Cc1ccc2ccccc2c1)NC)C(=O)N[C@@H](CO)C(=O)N[C@H](CCC(N)=O)C(=O)N[C@@H](C(=O)N[C@H](C(=O)N[C@@H](CO)C(=O)N[C@H]1C(=O)N[C@@H](C)C(=O)NC2(CCCCCC2)C(=O)N[C@@H]([C@@H](C)CC)C(=O)O[C@H]1C)[C@@H](C)CC)[C@@H](C)CC.O=C(O)C(F)(F)F [Example 24] | 4 | 4 | 4 | –
12 | CC[C@H](C)[C@H](NC(=O)[C@@H](Cc1csc2ccccc12)NC)C(=O)N[C@@H](CO)C(=O)N[C@H](CCC(N)=O)C(=O)N[C@@H](C(=O)N[C@H](C(=O)N[C@@H](CO)C(=O)N[C@H]1C(=O)N[C@@H](C)C(=O)NC2(CC2)C(=O)N[C@@H]([C@@H](C)CC)C(=O)O[C@H]1C)[C@@H](C)CC)[C@@H](C)CC.O=C(O)C(F)(F)F [Example 15] | 4 | 4 | 8 | –
13 | CC[C@H](C)[C@H](NC(=O)[C@@H](Cc1ccc(-c2ccccc2)cc1)NC)C(=O)N[C@@H](CO)C(=O)N[C@H](CCC(N)=O)C(=O)N[C@@H](C(=O)N[C@H](C(=O)N[C@@H](CO)C(=O)N[C@H]1C(=O)N[C@@H](C)C(=O)NC2(CC2)C(=O)N[C@@H]([C@@H](C)CC)C(=O)O[C@H]1C)[C@@H](C)CC)[C@@H](C)CC.O=C(O)C(F)(F)F [Example 18] | 2 | 2 | 2 | –
14 | CC[C@H](C)[C@H](NC(=O)[C@@H](Cc1csc2ccccc12)NC)C(=O)N[C@@H](CO)C(=O)N[C@H](CCC(N)=O)C(=O)N[C@@H](C(=O)N[C@H](C(=O)N[C@@H](CO)C(=O)N[C@H]1C(=O)N[C@@H](C)C(=O)N[C@@]2(C[C@H]2CC(F)F)C(=O)N[C@@H]([C@@H](C)CC)C(=O)O[C@H]1C)[C@@H](C)CC)[C@@H](C)CC.O=C(O)C(F)(F)F [Example 14] | 4 | 4 | 8 | –
15 | C=C[C@H]1C[C@]12NC(=O)[C@H](C)NC(=O)[C@H](NC(=O)[C@H](CO)NC(=O)[C@@H](NC(=O)[C@H](NC(=O)[C@@H](CCC(N)=O)NC(=O)[C@H](CO)NC(=O)[C@@H](NC(=O)[C@@H](Cc1ccc3ccccc3c1)NC)[C@@H](C)CC)[C@@H](C)CC)[C@@H](C)CC)[C@H](C)OC(=O)[C@H]([C@@H](C)CC)NC2=O.O=C(O)C(F)(F)F [Example 22] | 2 | 2 | 4 | –
16 | CC[C@H](C)[C@H](NC(=O)[C@@H](Cc1ccc(-c2ccccc2)cc1)NC)C(=O)N[C@@H](CO)C(=O)N[C@H](CCC(N)=O)C(=O)N[C@@H](C(=O)N[C@H](C(=O)N[C@@H](CO)C(=O)N[C@H]1C(=O)N[C@@H](C)C(=O)NC2(CCCCCC2)C(=O)N[C@@H]([C@@H](C)CC)C(=O)O[C@H]1C)[C@@H](C)CC)[C@@H](C)CC.O=C(O)C(F)(F)F [Example 19] | 4 | 4 | 4 | –
17 | CC[C@H](C)[C@H](NC(=O)[C@@H](Cc1ccc(-c2ccc(-c3ccccc3)cc2)cc1)NC)C(=O)N[C@@H](CO)C(=O)N[C@H](CCC(N)=O)C(=O)N[C@@H](C(=O)N[C@H](C(=O)N[C@@H](CO)C(=O)N[C@H]1C(=O)N[C@@H](C)C(=O)NC2(CC2)C(=O)N[C@@H]([C@@H](C)CC)C(=O)O[C@H]1C)[C@@H](C)CC)[C@@H](C)CC.O=C(O)C(F)(F)F [Example 21] | 8 | 8 | 8 | –
